Source: patent US10905704B2, “Agents and methods using thereof for the prevention and treatment of stem cell muscle disorders” (ECOLE POLYTECHNIQUE FEDERALE DE LAUSANNE (EPFL), priority 2015, dated 2021)

Assays:
MuSCs [1] = assay: MuSC numbers in NR-treated Mdx mice (FACS, PAX7 immunostaining); type: in vivo
Procedure: Animals. Young (1 month old) and aged (20-24 months old) C57BL/6JRj mice, purchased from Janvier Labs, and five weeks old male C57BL/10SnJ mice or C57BL/10ScSn-Dmdmdx/J, purchased from The Jackson Laboratory, were fed with pellets containing vehicle or NR (400 mg/kg/day) for 6-8 weeks. The pellets were prepared by mixing powdered chow diet (D12450B, Research Diets Inc.) with water or with NR dissolved in water. Pellets were dried under a laminar flow hood for 48 hours. All mice were housed in micro-isolator cages in a room illuminated from 7:00 am -7:00 pm with ad libitum access to diet and water.
FACS based muscle stem cell isolation. Gastrocnemius, soleus, quadriceps, and tibialis anterior muscles from both limbs were excised and transferred into PBS on ice. All muscles were trimmed, minced and digested with 0.1 mg/ml of type II collagenase (Sigma) in PBS for 15 min at 37° C. Samples were then centrifuged at 750 g for 5 min and further digested in 1 mg/ml of collagenase/dispase (Roche) for 30 mins at 37° C. Muscle slurries were sequentially filtered through 100, 70 and 40 μm cell strainers. […] Stained cells were analysed and sorted using the FACSAria II instrument (BD Biosciences). […]

C2C12 myoblasts = assay: Respirometry on C2C12 myoblasts (OCR, ECAR); type: cell-based, mouse; conditions: C2C12 cells, NR vs PBS for 6 hours, FIG. 4J
Procedure: Cell culture and treatments were prepared according to description of Example 3. C2C12 mouse myoblasts were grown in DMEM (4.5 g/1 glucose, Gibco) supplemented with 10% FBS and penicillin/streptomycin (1×, Gibco). Cell transformation with Phb (Santa Cruz) and Phb2 shRNA (Santa Cruz) were performed using jetPEI DNA transfection kit (Polyplus), according to manufacturer's instructions. Cells were treated with 1 mM NR or PBS for 6 hours before cell harvesting or fixation. Respirometry on C2C12 myoblasts. Basal and uncoupled oxygen consumption rates (OCRs) and the extracellular acidification rate (ECAR) was measured using the Seahorse extracellular flux bioanalyzer (XF96, Seahorse Bioscience Inc.). To uncouple mitochondria, 5 uM of FCCP was injected after a basal respiration measurement. All measurements were performed in triplicates and results were normalized to total protein amount (C2C12 cells), assessed using a Bradford kit (Bio-Rad).

MuSCs [2] = assay: MuSCs transplantation from NR-treated aged donors into Mdx mice; type: in vivo; conditions: MuSCs from NR-treated aged donors vs controls, Mdx recipients, 4 weeks
Procedure: MuSCs transplantation. 5,000-8,000 double-sorted MuSCs isolated from NR or normal chow diet C57B/6J mice were resuspended in 10 μl of F10 media with 20% FBS and injected directly into cardiotoxin (CTX) pre-injured tibialis anterior (TA) muscle of Mdx mice 24hrs after the injury. The CTX pre-injury was performed as described above. Recipient mice were sacrificed 4 weeks after transplantation, TA muscle were harvested and prepared for cryosection.
Histology. TA muscles were harvested from anaesthetized mice and immediately frozen in Tissue-TEK® OCT compound (PST). 8-μm cryosections were collected and fixed with 4% paraformaldehyde, which are either stained with haematoxylin/eosin (HE) or antibodies. For immunostainings, heat activated antigen retrieval was performed in pH 6.0 citrate buffer for 10 min at 65° C. After washing with PBS-0.1% tween 20 (PBST), the sections were blocked with 10% affinipure Fab goat anti mouse IgG (Jackson Immunoresearch) in PBST for 60 min and PBST containing 2% BSA and 5% goat serum for 30 min at room temperature. Primary antibodies were then applied over night at 4° C. The following antibodies were used: anti-eMHC (Developmental Studies Hybridoma Bank, DSHB, University of Iowa), anti-Pax7 (DSHB, University of Iowa), anti-Laminin (Sigma). Subsequently, the slides were washed in PBST and incubated with appropriate secondary antibodies and labeling dyes. […]

## NC(=O)c1ccc[n+]([C@@H]2O[C@H](CO)[C@@H](O)[C@H]2O)c1 [NR, nicotinamide riboside]
MuSCs [1]; Mdx mice, NR 400 mg/kg/day in diet, FACS, FIG. 6B-D
  increase of MuSC numbers in vivo: ~1.8 fold
MuSCs [1]; NR-treated Mdx mice, FIG. 6E
  MuSC numbers by PAX7 immunostaining: confirmed by PAX7 immunostaining
C2C12 myoblasts
  glycolysis (ECAR): reductions in glycolysis
  oxidative respiration (OCR): increases in oxidative respiration
MuSCs [2]
  replenishment of MuSC compartment after transplantation: more effectively replenished the MuSC compartment
MuSCs [2]; FIG. 3N
  myogenesis of dystrophin-positive myofibers after transplantation: stimulated myogenesis of dystrophin-positive myo fibers
